Assay results as given in US20250051338A1, “TYK2 DEGRADERS AND USES THEREOF” (Kymera Therapeutics, Inc., priority 2021, published 2025).

Tests used:
Type in all cases: cell-based
TYK2 [1] = molecular target: T1, TYK2 (Homo sapiens, UniProt P29597); experiment: TYK2 degradation MSD assay in human PBMC cells; parameters: endogenous in cells; host or cells: human PBMC; details: 4 to 24 hours incubation, read-out: TYK2 MSD DC50 rating in human PBMC
Method in brief: (§1)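 MSD electrochemiluminescence readout of residual TYK2 in RIPA lysates after 4–24 h compound exposure at 37° C. Dosing: 9 concentrations, 1:3 steps, top 1 to 10 μM. DC50 fitted by four-parameter inhibitor vs. response regression.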

TYK2 [2] = molecular target: T1, TYK2; experiment: TYK2 degradation MSD assay in EBV-B cells; parameters: endogenous in cells; host or cells: EBV-B cells; details: 4 to 24 hours incubation, read-out: TYK2 MSD DC50 rating in EBV-B
Method in brief: as §1

TYK2 [3] = molecular target: T1, TYK2; experiment: TYK2 degradation MSD assay in OCI-LY10 cells; parameters: endogenous in cells; host or cells: EBV-B cells; details: 4 to 24 hours incubation, read-out: TYK2 MSD DC50 rating in OCI-LY10
Method in brief: as §1

T1 sequence (P29597 whole entry): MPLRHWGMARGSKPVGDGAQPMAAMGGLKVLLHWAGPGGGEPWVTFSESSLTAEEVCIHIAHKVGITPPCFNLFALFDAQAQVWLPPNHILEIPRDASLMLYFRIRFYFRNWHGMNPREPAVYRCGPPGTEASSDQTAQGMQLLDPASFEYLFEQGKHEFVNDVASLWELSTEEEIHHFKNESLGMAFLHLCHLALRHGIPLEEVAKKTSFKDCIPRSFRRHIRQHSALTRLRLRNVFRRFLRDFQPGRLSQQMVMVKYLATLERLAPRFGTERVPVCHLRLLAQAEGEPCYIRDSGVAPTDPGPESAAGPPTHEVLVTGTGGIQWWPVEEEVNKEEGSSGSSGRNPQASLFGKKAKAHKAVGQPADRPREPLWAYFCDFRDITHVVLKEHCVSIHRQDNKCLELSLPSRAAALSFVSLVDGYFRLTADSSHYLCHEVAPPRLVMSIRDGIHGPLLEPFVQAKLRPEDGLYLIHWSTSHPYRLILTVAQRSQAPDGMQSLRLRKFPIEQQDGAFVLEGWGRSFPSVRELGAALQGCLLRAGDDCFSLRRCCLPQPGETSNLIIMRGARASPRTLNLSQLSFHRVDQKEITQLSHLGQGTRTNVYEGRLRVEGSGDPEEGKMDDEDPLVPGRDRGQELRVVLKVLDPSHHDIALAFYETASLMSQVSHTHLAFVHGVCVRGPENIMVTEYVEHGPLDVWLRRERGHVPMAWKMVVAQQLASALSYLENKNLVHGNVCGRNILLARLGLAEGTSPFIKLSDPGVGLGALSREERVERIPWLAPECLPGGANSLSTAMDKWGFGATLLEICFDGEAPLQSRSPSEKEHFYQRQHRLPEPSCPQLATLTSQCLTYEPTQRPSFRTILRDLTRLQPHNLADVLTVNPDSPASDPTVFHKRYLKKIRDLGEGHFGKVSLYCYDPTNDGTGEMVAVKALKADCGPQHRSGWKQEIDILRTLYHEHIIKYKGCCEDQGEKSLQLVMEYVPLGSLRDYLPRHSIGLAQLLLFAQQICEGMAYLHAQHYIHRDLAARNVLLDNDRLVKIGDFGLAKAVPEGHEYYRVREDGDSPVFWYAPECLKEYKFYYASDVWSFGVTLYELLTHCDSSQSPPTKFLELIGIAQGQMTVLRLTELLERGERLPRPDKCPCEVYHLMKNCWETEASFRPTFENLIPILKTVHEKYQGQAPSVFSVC

Row | SMILES | DC50 (TYK2 [1]) [nM] | DC50 (TYK2 [2]) [nM] | DC50 (TYK2 [3]) [nM]
1 | CNC(=O)c1cnc(Nc2ccc(C(=O)N(C)C3CCN(c4cccc5c4n(C)c(=O)n5C4CCC(=O)NC4=O)CC3)cn2)cc1Nc1ccccc1OC (stereo not drawn) [Example K195] | > 100 | 1 to 10 | > 100
2 | Cn1c(=O)n(C2CCC(=O)NC2=O)c2ccc(CCOCCOCCNc3cc(Nc4cccn(-c5ccccn5)c4=O)nn4c(C(=O)N[C@@H]5C[C@@H]5F)cnc34)cc21 (stereo partly drawn) [Example K201] | > 100 | > 100 | > 100
3 | Cn1c(=O)n(C2CCC(=O)NC2=O)c2ccc(CCOCCOCCOCCOCCNc3cc(Nc4cccn(-c5ccccn5)c4=O)nn4c(C(=O)NC5C[C@@H]5F)cnc34)cc21 (stereo partly drawn) [Example K202] | > 100 | > 100 | > 100
4 | Cn1c(=O)n(C2CCC(=O)NC2=O)c2ccc(CCCCNc3cc(Nc4cccn(-c5ccccn5)c4=O)nn4c(C(=O)N[C@@H]5C[C@@H]5F)cnc34)cc21 (stereo partly drawn) [Example K204] | > 100 | > 100 | > 100
5 | Cn1c(=O)n(C2CCC(=O)NC2=O)c2cccc(CCCCNc3cc(Nc4cccn(-c5ccccn5)c4=O)nn4c(C(=O)N[C@@H]5C[C@@H]5F)cnc34)c21 (stereo partly drawn) [Example K205] | > 100 | > 100 | > 100
6 | Cn1c(=O)n(C2CCC(=O)NC2=O)c2cccc(CCCCCCNc3cc(Nc4cccn(-c5ccccn5)c4=O)nn4c(C(=O)N[C@@H]5C[C@@H]5F)cnc34)c21 (stereo partly drawn) [Example K206] | > 100 | > 100 | > 100
7 | Cn1c(=O)n(C2CCC(=O)NC2=O)c2ccc(CCCCCCNc3cc(Nc4cccn(-c5ccccn5)c4=O)nn4c(C(=O)N[C@@H]5C[C@@H]5F)cnc34)cc21 (stereo partly drawn) [Example K207] | > 100 | > 100 | > 100
8 | Cn1c(=O)n(C2CCC(=O)NC2=O)c2ccc(CCCCCCCCNc3cc(Nc4cccn(-c5ccccn5)c4=O)nn4c(C(=O)N[C@@H]5C[C@@H]5F)cnc34)cc21 (stereo partly drawn) [Example K208] | > 100 | > 100 | > 100
9 | Cn1c(=O)n(C2CCC(=O)NC2=O)c2cccc(CCCCCCCCNc3cc(Nc4cccn(-c5ccccn5)c4=O)nn4c(C(=O)N[C@@H]5C[C@@H]5F)cnc34)c21 (stereo partly drawn) [Example K209] | > 100 | > 100 | > 100
10 | Cn1c(=O)n(C2CCC(=O)NC2=O)c2ccc(CCCCCCCCCCNc3cc(Nc4cccn(-c5ccccn5)c4=O)nn4c(C(=O)N[C@@H]5C[C@@H]5F)cnc34)cc21 (stereo partly drawn) [Example K210] | > 100 | > 100 | > 100
11 | Cn1c(=O)n(C2CCC(=O)NC2=O)c2ccc(CCCCCCCCCCCCNc3cc(Nc4cccn(-c5ccccn5)c4=O)nn4c(C(=O)N[C@@H]5C[C@@H]5F)cnc34)cc21 (stereo partly drawn) [Example K211] | > 100 | > 100 | > 100
12 | Cn1c(=O)n(C2CCC(=O)NC2=O)c2cccc(CCOCCOCCNc3cc(Nc4cccn(-c5ccccn5)c4=O)nn4c(C(=O)N[C@@H]5C[C@@H]5F)cnc34)c21 (stereo partly drawn) [Example K212] | > 100 | > 100 | > 100
13 | Cn1c(=O)n(C2CCC(=O)NC2=O)c2cccc(CCOCCOCCOCCOCCOCCOCCNc3cc(Nc4cccn(-c5ccccn5)c4=O)nn4c(C(=O)N[C@@H]5C[C@@H]5F)cnc34)c21 (stereo partly drawn) [Example K213] | > 100 | > 100 | > 100
14 | Cn1c(=O)n(C2CCC(=O)NC2=O)c2cccc(CCOCCOCCOCCOCCNc3cc(Nc4cccn(-c5ccccn5)c4=O)nn4c(C(=O)N[C@@H]5C[C@@H]5F)cnc34)c21 (stereo partly drawn) [Example K214] | > 100 | > 100 | > 100
15 | CNc1cc(Nc2cccn(-c3ccc(C(=O)NCCOCCOCCOCCOCCOCCOCCc4ccc5c(c4)n(C)c(=O)n5C4CCC(=O)NC4=O)cn3)c2=O)nn2c(C(=O)N[C@@H]3C[C@@H]3F)cnc12 (stereo partly drawn) [Example K215] | 10 to 100 | > 100 | > 100
16 | CNc1cc(Nc2cccn(-c3ccc(C(=O)NCCOCCOCCOCCOCCOCCOCCc4cccc5c4n(C)c(=O)n5C4CCC(=O)NC4=O)cn3)c2=O)nn2c(C(=O)N[C@@H]3C[C@@H]3F)cnc12 (stereo partly drawn) [Example K217] | 10 to 100 | 10 to 100 | > 100
17 | CNc1cc(Nc2cccn(-c3ccc(C(=O)NCCOCCOCCOCCOCCc4cccc5c4n(C)c(=O)n5C4CCC(=O)NC4=O)cn3)c2=O)nn2c(C(=O)N[C@@H]3C[C@@H]3F)cnc12 (stereo partly drawn) [Example K218] | 10 to 100 | > 100 | > 100

The remaining lines, values ahead:

Row | DC50 (TYK2 [1]) [nM] | DC50 (TYK2 [2]) [nM] | DC50 (TYK2 [3]) [nM] | SMILES
18 | < 1 | > 100 | > 100 | CNC(=O)c1cnc(NC(=O)NCCCCCCCc2ccc3c(c2)n(C)c(=O)n3C2CCC(=O)NC2=O)cc1Nc1cccc(-c2ncc(F)cn2)c1OC (stereo not drawn) [Example K188]
19 | 10 to 100 | > 100 | 10 to 100 | CNC(=O)c1cnc(Nc2ccc(C(=O)NCCCCc3cccc4c3n(C)c(=O)n4C3CCC(=O)NC3=O)cn2)cc1Nc1cccn(C)c1=O (stereo not drawn) [Example K189]
20 | 1 to 10 | 10 to 100 | > 100 | CNC(=O)c1cnc(Nc2ccc(C(=O)NCCCCc3cccc4c3n(C)c(=O)n4C3CCC(=O)NC3=O)cn2)cc1Nc1ccccc1S(C)(=O)=O (stereo not drawn) [Example K190]
21 | 1 to 10 | > 100 | 1 to 10 | CNC(=O)c1cnc(Nc2ccc(C(=O)NCCCCc3cccc4c3n(C)c(=O)n4C3CCC(=O)NC3=O)cn2)cc1Nc1ccccc1OC (stereo not drawn) [Example K191]
22 | 1 to 10 | > 100 | 1 to 10 | CNC(=O)c1cnc(Nc2ccc(C(=O)NCCCCc3cccc4c3n(C)c(=O)n4C3CCC(=O)NC3=O)cn2)cc1Nc1ccccc1 (stereo not drawn) [Example K192]
23 | 1 to 10 | 1 to 10 | > 100 | CNC(=O)c1cnc(Nc2cc(C(=O)NCCCCCCc3cccc4c3n(C)c(=O)n4C3CCC(=O)NC3=O)ccn2)cc1Nc1cccc(-c2ncc(F)cn2)c1OC (stereo not drawn) [Example K193]
24 | < 1 | > 100 | > 100 | CNC(=O)c1cnc(Nc2ccc(CN3CCN(Cc4ccc5c(c4)n(C)c(=O)n5C4CCC(=O)NC4=O)CC3)cn2)cc1Nc1cccc(-c2ncc(F)cn2)c1OC (stereo not drawn) [Example K194]
25 | < 1 | > 100 | < 1 | CNC(=O)c1cnc(Nc2ccc(N3CCN(c4ccc5c(c4)n(C)c(=O)n5C4CCC(=O)NC4=O)CC3)cn2)cc1Nc1cccc(-c2ncc(F)cn2)c1OC (stereo not drawn) [Example K196]
26 | < 1 | > 100 | > 100 | CNC(=O)c1cnc(Nc2ccc(C3CCN(Cc4ccc5c(c4)n(C)c(=O)n5C4CCC(=O)NC4=O)CC3)cn2)cc1Nc1cccc(-c2ncc(F)cn2)c1OC (stereo not drawn) [Example K197]
27 | < 1 | > 100 | > 100 | CNC(=O)c1cnc(Nc2ccc(CN3CC(c4cccc5c4n(C)c(=O)n5C4CCC(=O)NC4=O)C3)cn2)cc1Nc1cccc(-c2ncc(F)cn2)c1OC (stereo not drawn) [Example K198]
28 | 1 to 10 | > 100 | > 100 | CNC(=O)c1cnc(Nc2ccc(CN3CC(c4ccc5c(c4)n(C)c(=O)n5C4CCC(=O)NC4=O)C3)cn2)cc1Nc1cccc(-c2ncc(F)cn2)c1OC (stereo not drawn) [Example K199]
29 | 1 to 10 | > 100 | > 100 | CNc1cc(Nc2cccn(-c3ccc(C(=O)NCCOCCOCCc4cccc5c4n(C)c(=O)n5C4CCC(=O)NC4=O)cn3)c2=O)nn2c(C(=O)N[C@@H]3C[C@@H]3F)cnc12 (stereo partly drawn) [Example K216]
